These results are taken from paper PMC4147592 (2014).

SMILES strings stand for the structures.

For experiment [1], the system named is A08 minimer (DNA, aptamer) GGCAGTGTGGGCGAATCTATGCGTACCGTTCGATATCGTG
The experiment in a line: SYBR Green I displacement fluorescence. Conditions: 137 mM NaCl, 2.7 mM KCl, 10 mM Na2HPO4, 2 mM KH2PO4, pH 7.4, tracer SYBR Green I.

Experiment [2] deals with A08 (DNA, aptamer) AGCCTCGTCTGTTCTCCCGGCAGTGTGGGCGAATCTATGCGTACCGTTCGATATCGTGGGGAAGACAAGCAGACGT
Put plainly: SYBR Green I displacement fluorescence. The note with it: 137 mM NaCl, 2.7 mM KCl, 10 mM Na2HPO4, 2 mM KH2PO4, pH 7.4, tracer SYBR Green I.

Experiment [3] relates to B08 (DNA, aptamer) AGCCTCGTCTGTTCTCCCGGCGCATGATCATTCGGTGGGTAAGGTGGTGGTAACGTTGGGGAAGACAAGCAGACGT
The experiment in a line: SYBR Green I displacement fluorescence. Conditions: 137 mM NaCl, 2.7 mM KCl, 10 mM Na2HPO4, 2 mM KH2PO4, pH 7.4, tracer SYBR Green I.

Experiment [4] has the same test system. Put plainly: magnetic beads isocratic elution, fluorescence. Conditions: 137 mM NaCl, 2.7 mM KCl; immobilised compound (amine Dynabeads, EDC); 10 mM Na2HPO4, 2 mM KH2PO4, pH 7.4; apparent.
In experiment [5] the test system is Non-specific control (DNA, single strand) AGCACGTTGGTAGGTCGGTTTGGGTTTCGTGC
The experiment in a line: SYBR Green I displacement fluorescence. Conditions: 137 mM NaCl, 2.7 mM KCl; 10 mM Na2HPO4, 2 mM KH2PO4, pH 7.4; tracer SYBR Green I; highest OTA about 0.18 µM.

The test system of experiment [6] is A08 (DNA, aptamer) AGCCTCGTCTGTTCTCCCGGCAGTGTGGGCGAATCTATGCGTACCGTTCGATATCGTGGGGAAGACAAGCAGACGT
Put plainly: magnetic beads isocratic elution, fluorescence. Conditions: 137 mM NaCl, 2.7 mM KCl; immobilised compound (amine Dynabeads, EDC); 10 mM Na2HPO4, 2 mM KH2PO4, pH 7.4; apparent.

Experiment [7] has as its system 1.12.2 (DNA, aptamer) GATCGGGTGTGGGTGGCGTAAAGGGAGCATCGGACA
Put plainly: magnetic beads isocratic elution, fluorescence. The note with it: 137 mM NaCl, 2.7 mM KCl; immobilised compound (amine Dynabeads, EDC); 10 mM Na2HPO4, 2 mM KH2PO4, pH 7.4; apparent.

In experiment [8] the test system is B08 (DNA, aptamer) AGCCTCGTCTGTTCTCCCGGCGCATGATCATTCGGTGGGTAAGGTGGTGGTAACGTTGGGGAAGACAAGCAGACGT
Put plainly: fluorescence enhancement at 520 nm. The note with it: 137 mM NaCl, 2.7 mM KCl; 10 mM Na2HPO4, 2 mM KH2PO4, pH 7.4; excitation 497 nm.

The subject of experiment [9] is A08 minimer (DNA, aptamer) GGCAGTGTGGGCGAATCTATGCGTACCGTTCGATATCGTG
Put plainly: fluorescence enhancement at 520 nm. The note with it: 137 mM NaCl, 2.7 mM KCl; 10 mM Na2HPO4, 2 mM KH2PO4, pH 7.4; excitation 497 nm.

For experiment [10], the system named is Non-specific control (DNA, single strand) AGCACGTTGGTAGGTCGGTTTGGGTTTCGTGC
The experiment in a line: fluorescence enhancement at 520 nm. The note with it: 137 mM NaCl, 2.7 mM KCl; 10 mM Na2HPO4, 2 mM KH2PO4, pH 7.4; excitation 497 nm.

Experiment [11] relates to A08 (DNA, aptamer) AGCCTCGTCTGTTCTCCCGGCAGTGTGGGCGAATCTATGCGTACCGTTCGATATCGTGGGGAAGACAAGCAGACGT
The experiment in a line: fluorescence enhancement at 520 nm. The note with it: 137 mM NaCl, 2.7 mM KCl; 10 mM Na2HPO4, 2 mM KH2PO4, pH 7.4; excitation 497 nm.

Setting [12] is: compared at 30 and 100 nM, highest about 0.18 µM.

In the case of `C[C@@H]1Cc2ccc(C(=O)N[C@@H](Cc3ccccc3)C(=O)O)c(O)c2C(=O)O1`, the binding result in experiment [1] (OTA signal 6–10 fold larger), in experiment [2] (OTA signal 6–10 fold larger) and in experiment [3] (OTA signal 2–3 fold larger) was “weak” throughout.

Consider `C[C@@H]1Cc2c(Cl)cc(C(=O)N[C@@H](Cc3ccccc3)C(=O)O)c(O)c2C(=O)O1`, for which the KD in experiment [4] turned out to be 0.11 ± 0.05 µM; in [6] it was 0.29 ± 0.15 µM; in experiment [7] it was 0.37 ± 0.25 µM. Moreover, the binding entry is given as “yes” in experiment [1] (linear signal to 100 nM OTA), “no” in [5] and “yes” in [3].

As to `CCCN(CCCN(C)C)c1cc(C=C2Sc3ccccc3N2C)c2ccccc2[n+]1-c1ccccc1`, the binding entry in [8], in experiment [9], in experiment [10] and in [11] was “yes” each time.

For the compound `CC(=O)CC(c1ccccc1)c1c(O)c2ccccc2oc1=O` (stereo not shown), the binding entry was “no” in [1] (setting [12]), “no” in experiment [2] (setting [12]) and “weak” in experiment [3] (OTA signal 2–3 fold larger).
